Test results published in publication PMC8952364, “Polyphenols as Inhibitors of Antibiotic Resistant Bacteria—Mechanisms Underlying Rutin Interference with Bacterial Virulence” (Pharmaceuticals, 2022).
Converted amounts (≈) assume the structure as drawn. Where two headings read alike, the source gives them in different places.

Columns and labels:
[1] = test system: eleven antibiotic resistant strains of bacteria; assay: Antimicrobial assay, summary over the examined strains; format: cell-based; conditions: summary of Table 1
Description: (§1) The bacterial suspension (0.5 Mc Farland) was prepared, and twenty-fold dilutions of these suspensions were mixed in a 1:10 ratio with the corresponding polyphenol dilution (0.0039–1 mg/mL). Microtiter plates were incubated at 37 °C for 24 h. The lowest concentrations without visible growth (under a binocular microscope) were defined as MICs. The bactericidal concentrations (MBCs) were determined by serial subcultivation of 2 μL of the well’s content and further incubation for 24 h at 37 °C. Streptomycin (SigmaAldrich, Darmstadt, Germany) was used as a positive control. The polyphenols were obtained from Extrasynthese, Rhone, France (rutin, isoquercitrin) and SigmaAldrich, Germany (hesperetin, hesperidin, naringenin, naringin, taxifolin, morin, chlorogenic acid, ferulic acid, p-coumaric acid, and gallic acid). The stock compounds were prepared in ethanol (30%), and adequate ethanol concentrations were used as the negative control in the assays. Experiments were done in triplicate.

[2] = test system: P. aeruginosa IBRS P001 biofilm; assay: Crystal violet antibiofilm assay (biofilm formation); format: cell-based, Pseudomonas aeruginosa; conditions: MIC and sub-MIC, 24 h, crystal violet, Figure 1
Description: After incubation, each well was washed twice with sterile PBS (phosphate-buffered saline, pH 7.4) and fixed with methanol for 10 min. After removal of methanol the plate was air-dried. The biofilm was stained with 0.1% crystal violet (Bio-Merieux, Marcy l’Etoile, France) for 30 min. The plate was washed with water, air dried, and the stain was dissolved with 200 μL of 96% ethanol (Zorka, Sabac, Serbia). The absorbance was read at 620 nm on a Multiskan™ FC microplate photometer (Thermo Scientific™, Waltham, MA, USA). The results are presented as biofilm forming capacity (%) compared to control.

P. aeruginosa IBRS P001 = assay: Antimicrobial microdilution assay (MIC/MBC); format: cell-based, Pseudomonas aeruginosa; conditions: Pseudomonas aeruginosa, IBRSP001; for MIC: 37 °C, 24 h, read-out: MIC; for MBC: subcultivation, 24 h at 37 °C, read-out: MBC
Description: as §1

P. aeruginosa MMA83 = assay: Antimicrobial microdilution assay (MIC/MBC); format: cell-based, Pseudomonas aeruginosa; conditions: for MIC: 37 °C, 24 h, read-out: MIC; for MBC: subcultivation, 24 h at 37 °C
Description: as §1

A. baumannii S2/2 = assay: Antimicrobial microdilution assay (MIC/MBC); format: cell-based, Acinetobacter baumannii; conditions: Acinetobacter baumannii, S2/2; for MIC: 37 °C, 24 h, read-out: MIC; for MBC: subcultivation, 24 h at 37 °C, read-out: MBC
Description: as §1

A. baumannii 6077/12 = assay: Antimicrobial microdilution assay (MIC/MBC); format: cell-based, Acinetobacter baumannii; conditions: Acinetobacter baumannii, 6077/12; for MIC: 37 °C, 24 h, read-out: MIC; for MBC: subcultivation, 24 h at 37 °C, read-out: MBC
Description: as §1

K. pneumoniae Ni9 = assay: Antimicrobial microdilution assay (MIC/MBC); format: cell-based, Klebsiella pneumoniae; conditions: Klebsiella pneumoniae, NI9; for MIC: read-out: MIC; for MBC: subcultivation, 24 h at 37 °C, read-out: MBC
Description: as §1

K. pneumoniae IT977 = assay: Antimicrobial microdilution assay (MIC/MBC); format: cell-based, Klebsiella pneumoniae; conditions: Klebsiella pneumoniae, IT977; for MIC: read-out: MIC; for MBC: subcultivation, 24 h at 37 °C, read-out: MBC
Description: as §1

A. xylosoxidans 37F = assay: Antimicrobial microdilution assay (MIC/MBC); format: cell-based, Achromobacter xylosoxidans; conditions: Achromobacter xylosoxidans, 37F; for MIC: 37 °C, 24 h, read-out: MIC; for MBC: subcultivation, 24 h at 37 °C, read-out: MBC
Description: as §1

[3] = test system: Escherichia coli K-12 MG1655, Salmonella enterica serovar Typhimurium LT2, and Pseudomonas putida ATCC 795; set-up: method as in PMID 18045389; conditions: cited from earlier work
S. infantis 1371/1 = assay: Antimicrobial microdilution assay (MIC/MBC); format: cell-based, Salmonella Infantis; conditions: Salmonella enterica, 1371/1; for MIC: 37 °C, 24 h, read-out: MIC; for MBC: subcultivation, 24 h at 37 °C, read-out: MBC
Description: as §1

HaCaT cells = assay: Cytotoxicity in HaCaT cell line (crystal violet assay); format: cell-based, human; conditions: for IC50: Homo sapiens, 24 h treatment, crystal violet, read-out: IC50 (compound concentration that inhibited 50% of the cell growth)
Description: For determination of the polyphenols’ cytotoxic effect, a crystal violet assay was used, with modifications. The cytotoxic effect of polyphenols was analyzed on spontaneously immortalized human skin keratinocytes (HaCaT, AddexBio No. T0020001, San Diego, CA, USA) cell lines. […] Cells (1 × 10^4 cells/well) were seeded in a 96-well plate (Sarstedt, Nümbrecht, Germany) 24 h before treatment. […] Cells were incubated with the compounds for 24 h. […] After crystal violet was removed, the plates were washed in a stream of tap water and left to air-dry at room temperature for 24 h. The absorbance was measured in a microplate reader (Multiskan™ FC Microplate Photometer, Thermo Scientific™) at 590 nm. The results were expressed as IC50 value in μg/mL. The criterion used to categorize the cytotoxic activity polyphenols was as follows: […] All analyses were performed in triplicate; each replicate was also quantified three times. Data were expressed as mean standard deviation, where applicable.

E. coli IBRS E003 = assay: Antimicrobial microdilution assay (MIC/MBC); format: cell-based, Escherichia coli; conditions: Escherichia coli, IBRSE003; for MIC: 37 °C, 24 h, read-out: MIC; for MBC: subcultivation, 24 h at 37 °C, read-out: MBC
Description: as §1

E. coli IMD989 = assay: Antimicrobial microdilution assay (MIC/MBC); format: cell-based, Escherichia coli; conditions: Escherichia coli, IMD989; for MIC: 37 °C, 24 h, read-out: MIC; for MBC: subcultivation, 24 h at 37 °C, read-out: MBC
Description: as §1

[4] = test system: Methicillin resistant S. aureus IBRS MRSA 011; assay: Antimicrobial microdilution assay (MIC/MBC); format: cell-based, Staphylococcus aureus
Description: as §1

P. aeruginosa MTCC 2488 = test system: P. aeruginosa MTCC 2488; set-up: method as in PMID 32057619; conditions: cited from earlier work
[5] = test system: E. coli (fluoroquinolones and ampicillin-resistant); set-up: method as in A previous investigation; conditions: ref A previous investigation; cited from earlier work
[6] = Pseudomonas aeruginosa, MMA83, read-out: MBC
[7] = Staphylococcus aureus, MRSA, 37 °C, 24 h, read-out: MIC
[8] = Staphylococcus aureus, MRSA, subcultivation, 24 h at 37 °C, read-out: MBC
[9] = restated in the discussion for two strains examined
[10] = Staphylococcus aureus, MRSA, 24 h

Structure (SMILES)	MIC (P. aeruginosa IBRS P001) [µg/mL]	MBC (P. aeruginosa IBRS P001) [µg/mL]	MIC (P. aeruginosa MMA83; Pseudomonas aeruginosa, MMA83) [µg/mL]	MBC (P. aeruginosa MMA83; [6]) [µg/mL]	MIC (A. baumannii S2/2) [µg/mL]	MBC (A. baumannii S2/2) [µg/mL]	MIC (A. baumannii 6077/12) [µg/mL]	MBC (A. baumannii 6077/12) [µg/mL]	MIC (K. pneumoniae Ni9; 37 °C, 24 h) [µg/mL]	MBC (K. pneumoniae Ni9) [µg/mL]	MIC (K. pneumoniae IT977; 37 °C, 24 h) [µg/mL]	MBC (K. pneumoniae IT977) [µg/mL]	MIC (A. xylosoxidans 37F) [µg/mL]	MBC (A. xylosoxidans 37F) [µg/mL]	MIC (S. infantis 1371/1) [µg/mL]	MBC (S. infantis 1371/1) [µg/mL]	MIC (E. coli IBRS E003) [µg/mL]	MBC (E. coli IBRS E003) [µg/mL]	MIC (E. coli IMD989) [µg/mL]	MBC (E. coli IMD989) [µg/mL]	further results
COc1ccc([C@@H]2CC(=O)c3c(O)cc(O)cc3O2)cc1O [Hesperetin, hesperetin]	500 (≈ 1650 µM)	1000 (≈ 3310 µM)	1000 (≈ 3310 µM)	1000 (≈ 3310 µM)	500 (≈ 1650 µM)	500 (≈ 1650 µM)	500 (≈ 1650 µM)	500 (≈ 1650 µM)	1000 (≈ 3310 µM)	1000 (≈ 3310 µM)	> 1000	> 1000	1000 (≈ 3310 µM)	1000 (≈ 3310 µM)	> 1000	> 1000	> 1000	> 1000	> 1000	> 1000	MIC towards a range of antibiotic-resistant bacterial strains [1]: ≥ 500 µg/mL; reduction of biofilm formation (biomass), in words [2]: significant (****, p < 0.0001) reduction; MIC [3]: ≥ 1000 µg/mL; cytotoxicity towards HaCaT, in words (HaCaT cells): non-cytotoxic properties; IC50 (HaCaT cells; HaCaT): > 1000 µg/mL; MIC [4, 7]: 500 µg/mL (≈ 1650 µM); MBC [4, 8]: 1000 µg/mL (≈ 3310 µM)
C[C@@H]1O[C@@H](O[C@H]2[C@H](Oc3cc(O)c4c(c3)O[C@H](c3ccc(O)cc3)CC4=O)O[C@H](CO)[C@@H](O)[C@@H]2O)[C@H](O)[C@H](O)[C@H]1O [Naringin, naringin]	250 (≈ 431 µM)	500 (≈ 861 µM)	> 1000	> 1000	> 1000	> 1000	> 1000	> 1000	> 1000	> 1000	> 1000	> 1000	> 1000	> 1000	> 1000	> 1000	> 1000	> 1000	> 1000	> 1000	reduction of biofilm formation (biomass), in words [2]: not significantly altered; MBC (P. aeruginosa MMA83): >1000 µg/mL; Bactericidal concentration (P. aeruginosa MTCC 2488): 1.4 mg/mL; IC50 (P. aeruginosa MTCC 2488): 570 µg/mL (≈ 982 µM); IC50 (HaCaT cells; HaCaT): > 1000 µg/mL; MIC [4, 7]: 500 µg/mL (≈ 861 µM); MBC [4, 8]: 1000 µg/mL (≈ 1720 µM)
O=C(O)/C=C/c1ccc(O)cc1 [p-Coumaric Acid, p-coumaric acid]	500 (≈ 3050 µM)	1000 (≈ 6090 µM)	500 (≈ 3050 µM)	1000 (≈ 6090 µM)	500 (≈ 3050 µM)	500 (≈ 3050 µM)	500 (≈ 3050 µM)	500 (≈ 3050 µM)	1000 (≈ 6090 µM)	1000 (≈ 6090 µM)	1000 (≈ 6090 µM)	1000 (≈ 6090 µM)	1000 (≈ 6090 µM)	1000 (≈ 6090 µM)	1000 (≈ 6090 µM)	1000 (≈ 6090 µM)	> 1000	> 1000	1000 (≈ 6090 µM)	1000 (≈ 6090 µM)	MIC [5]: 1000 µg/mL (≈ 6090 µM); cytotoxicity category (HaCaT cells; HaCaT, maximal tested concentrations (1 mg/mL)): no cytotoxicity (IC50 > 501 µg/mL = no cytotoxicity); IC50 (HaCaT cells; HaCaT): > 1000 µg/mL; MIC [4, 7]: 500 µg/mL (≈ 3050 µM); MBC [4, 8]: 1000 µg/mL (≈ 6090 µM)
O=C1C[C@@H](c2ccc(O)cc2)Oc2cc(O)cc(O)c21 [Naringenin, naringenin]	250 (≈ 918 µM)	500 (≈ 1840 µM)	1000 (≈ 3670 µM)	1000 (≈ 3670 µM)	500 (≈ 1840 µM)	500 (≈ 1840 µM)	500 (≈ 1840 µM)	500 (≈ 1840 µM)	250 (≈ 918 µM)	500 (≈ 1840 µM)	1000 (≈ 3670 µM)	1000 (≈ 3670 µM)	1000 (≈ 3670 µM)	1000 (≈ 3670 µM)	> 1000	> 1000	500 (≈ 1840 µM)	1000 (≈ 3670 µM)	1000 (≈ 3670 µM)	> 1000	IC50 (HaCaT cells; HaCaT): 528 ± 47 µg/mL (≈ 1940 µM); MIC ([4]; 37 °C, 24 h): 250 µg/mL (≈ 918 µM); MIC [4, 7]: 250 µg/mL (≈ 918 µM); MBC [4, 8]: 500 µg/mL (≈ 1840 µM)
O=C(/C=C/c1ccc(O)c(O)c1)O[C@@H]1C[C@](O)(C(=O)O)C[C@@H](O)[C@H]1O [Chlorogenic Acid, chlorogenic acid]	500 (≈ 1410 µM)	1000 (≈ 2820 µM)	1000 (≈ 2820 µM)	> 1000	1000 (≈ 2820 µM)	> 1000	1000 (≈ 2820 µM)	1000 (≈ 2820 µM)	> 1000	> 1000	> 1000	> 1000	1000 (≈ 2820 µM)	> 1000	> 1000	> 1000	> 1000	> 1000	> 1000	> 1000	MIC (K. pneumoniae Ni9; [9]): > 1000 µg/mL; MIC (K. pneumoniae IT977; [9]): > 1000 µg/mL; IC50 (HaCaT cells; HaCaT): 279 ± 8 µg/mL (≈ 787 µM); MBC [4, 10]: 1000 µg/mL (≈ 2820 µM); MIC [4, 10]: 500 µg/mL (≈ 1410 µM)
[H]/N=C(/N)N[C@H]1[C@H](O)[C@@H](O)[C@H](O[C@@H]2O[C@@H](C)[C@](O)(C=O)[C@H]2O[C@@H]2O[C@@H](CO)[C@H](O)[C@@H](O)[C@@H]2NC)[C@@H](N/C(N)=N\[H])[C@@H]1O [Streptomycin, reference compound]	50 (≈ 86 µM)	100 (≈ 172 µM)	> 1000	> 1000	> 1000	> 1000	> 1000	> 1000	> 1000	> 1000	> 1000	> 1000	> 1000	> 1000	> 1000	> 1000	100 (≈ 172 µM)	200 (≈ 344 µM)	1000 (≈ 1720 µM)	> 1000	MBC [4, 10]: 800 µg/mL (≈ 1380 µM); MIC [4, 10]: 100 µg/mL (≈ 172 µM)
